Inhibition data for 84 molecules are collected here from ChEMBL document CHEMBL2417551, “Structure-guided design of novel thiazolidine inhibitors of O-acetyl serine sulfhydrylase from Mycobacterium tuberculosis” (J Med Chem, 2013).

The assay addresses O-acetylserine sulfhydrylase (Mycobacterium tuberculosis) (UniProt P9WP55). Conditions: at 500 nM.
Description: Inhibition of Mycobacterium tuberculosis N-terminal His-6-tagged recombinant CysK1 expressed in Escherichia coli BL21 (DE3) at 500 nM after 20 mins by spectrophotometric analysis
`CN1C(=O)/C(=C/c2ccccc2O)S/C1=N\c1cccc(C(=O)O)c1` showed an inhibition of 62.7%.

In turn, `CCCCN1C(=O)/C(=C/c2ccc(OCC(=O)OC)cc2)S/C1=N\c1cccc(C(=O)O)c1` yielded an inhibition of 16.4%.

`CC(C)c1ccc(/C=C2\S/C(=N\c3cccc(C(=O)O)c3)N(C)C2=O)cc1` returned an inhibition of 54%.

In turn, `CCN1C(=O)/C(=C/c2ccc(OCC(=O)O)cc2)S/C1=N\c1cccc(C(=O)O)c1` yielded an inhibition of 36.9%.

Turning to `CCN1C(=O)/C(=C/c2ccccc2OCC(=O)O)S/C1=N\c1cccc(C(=O)O)c1`, the inhibition is 15.9%.

In turn, `CCN1C(=O)/C(=C/c2ccccn2)S/C1=N\c1cccc(C(=O)O)c1` gave an inhibition of 38.7%.

In the case of `CN1C(=O)/C(=C/c2cnccc2C(F)(F)F)S/C1=N\c1cccc(C(=O)O)c1`, the inhibition stood at 34.4%.

Regarding `CCCN1C(=O)/C(=C/c2ccc(O)cc2)S/C1=N\c1cccc(C(C)=O)c1`, the inhibition is 10.7%.

Turning to `C=CCN1C(=O)/C(=C/c2ccccc2OCC(=O)OC)S/C1=N\c1cccc(C(=O)O)c1`, the inhibition was 38.6%.

On to `CN1C(=O)/C(=C/c2ccccc2Cl)S/C1=N\c1cccc(C(=O)O)c1`, for which the inhibition is 54.6%.

In turn, `CCN1C(=O)/C(=C/c2ccccc2OC)S/C1=N\c1cccc(C(=O)O)c1` gave an inhibition of 59.5%.

With `CCCCN1C(=O)/C(=C/c2ccc(OCC(=O)OC)cc2)S/C1=N\c1cccc(C(C)=O)c1`, the inhibition is 0%.

In turn, `CCCN1C(=O)/C(=C/c2ccc(OCC(=O)O)cc2)S/C1=N\c1cccc(C(=O)O)c1` gave an inhibition of 0%.

As to `CCN1C(=O)/C(=C/c2ccccc2Br)S/C1=N\c1cccc(C(=O)O)c1`, the inhibition came to 54.1%.

With `COC(=O)COc1ccc(/C=C2\S/C(=N\c3cccc(C(=O)O)c3)N(C(C)C)C2=O)cc1`, the inhibition amounted to 0%.

`CN1C(=O)/C(=C/c2cccc(C(F)(F)F)c2)S/C1=N\c1cccc(C(=O)O)c1`: the inhibition turned out to be 26.1%.

For `CN1C(=O)/C(=C/c2ccccc2)S/C1=N\c1cccc(C(=O)O)c1`, the inhibition was 52.2%.

The molecule `CCN1C(=O)/C(=C/c2ccc(OCC(=O)OC)cc2)S/C1=N\c1cccc(C(C)=O)c1` came in with an inhibition of 8.2%.

Take `CN1C(=O)/C(=C/c2ccc(C(F)(F)F)cc2)S/C1=N\c1cccc(C(=O)O)c1`: the inhibition was found to be 72.1%.

On to `CC(C)N1C(=O)/C(=C/c2ccc(OCC(=O)O)cc2)S/C1=N\c1cccc(C(=O)O)c1`, for which the inhibition was 12.6%.

`CCN1C(=O)/C(=C/c2cccc(O)c2)S/C1=N\c1cccc(C(=O)O)c1` registered an inhibition of 52.8%.

Molecule `C=CCN1C(=O)/C(=C/c2ccc(O)cc2)S/C1=N\c1cccc(C(C)=O)c1` returned an inhibition of 28.9%.

Take `CCCCN1C(=O)/C(=C/c2ccc(OCC(=O)O)cc2)S/C1=N\c1cccc(C(C)=O)c1`: the inhibition is 24.1%.

For the molecule `CCN1C(=O)/C(=C/c2cccc(C)c2)S/C1=N\c1cccc(C(=O)O)c1`, the inhibition was 38.5%.

The molecule `CN1C(=O)/C(=C/c2ccco2)S/C1=N\c1cccc(C(=O)O)c1` came in with an inhibition of 30.1%.

On to `CCN1C(=O)/C(=C/c2ccc(O)cc2)S/C1=N\c1cccc(C(C)=O)c1`, for which the inhibition is 3.4%.

`CCN1C(=O)/C(=C/c2ccc(OCc3ccccc3)cc2)S/C1=N\c1cccc(C(=O)O)c1` registered an inhibition of 81.1%.

`CN1C(=O)/C(=C/c2c[nH]c3ccccc23)S/C1=N\c1cccc(C(=O)O)c1` came in with an inhibition of 73.5%.

In the case of `Cc1cccc(/C=C2\S/C(=N\c3cccc(C(=O)O)c3)N(C)C2=O)c1`, the inhibition turned out to be 49.6%.

`CCCCN1C(=O)/C(=C/c2ccc(O)cc2)S/C1=N\c1cccc(C(C)=O)c1` displayed an inhibition of 25.1%.

In turn, `CCN1C(=O)/C(=C/c2ccc(Br)cc2)S/C1=N\c1cccc(C(=O)O)c1` came in with an inhibition of 60.9%.

Molecule `C=CCN1C(=O)/C(=C/c2ccc(OCC(=O)OC)cc2)S/C1=N\c1cccc(C(C)=O)c1` showed an inhibition of 10.9%.

On to `CCN1C(=O)/C(=C/c2ccc(Cl)cc2)S/C1=N\c1cccc(C(=O)O)c1`, for which the inhibition is 54.4%.

In turn, `CN1C(=O)/C(=C/c2ccc(Cl)cc2)S/C1=N\c1cccc(C(=O)O)c1` registered an inhibition of 59.7%.

Turning to `CC(C)N1C(=O)/C(=C/c2ccccc2OCC(=O)O)S/C1=N\c1cccc(C(=O)O)c1`, the inhibition turned out to be 18.5%.

Molecule `CN1C(=O)/C(=C/c2ccc(Br)cc2)S/C1=N\c1cccc(C(=O)O)c1` had an inhibition of 70.5%.

The molecule `CN1C(=O)/C(=C/c2ccc[nH]2)S/C1=N\c1cccc(C(=O)O)c1` yielded an inhibition of 58.4%.

`CCN1C(=O)/C(=C/c2ccc(Cl)c(Cl)c2)S/C1=N\c1cccc(C(=O)O)c1`: the inhibition was 37.8%.

The molecule `CCN1C(=O)/C(=C/c2ccccc2OCc2ccccc2)S/C1=N\c1cccc(C(=O)O)c1` yielded an inhibition of 59.3%.

In turn, `CN1C(=O)/C(=C/c2ccc(Cl)cc2Cl)S/C1=N\c1cccc(C(=O)O)c1` registered an inhibition of 57.4%.

`CCCN1C(=O)/C(=C/c2ccc(OCC(=O)O)cc2)S/C1=N\c1cccc(C(C)=O)c1`: the inhibition stood at 0%.

Turning to `CCN1C(=O)/C(=C/c2ccc(N(C)C)cc2)S/C1=N\c1cccc(C(=O)O)c1`, the inhibition came to 52.4%.

Molecule `CN1C(=O)/C(=C/c2cccc(O)c2)S/C1=N\c1cccc(C(=O)O)c1` showed an inhibition of 56.8%.

With `CCN1C(=O)/C(=C/c2ccccc2C)S/C1=N\c1cccc(C(=O)O)c1`, the inhibition came out at 47%.

In the case of `CCN1C(=O)/C(=C/c2ccc(C(C)C)cc2)S/C1=N\c1cccc(C(=O)O)c1`, the inhibition is 49.6%.

The molecule `CCN1C(=O)/C(=C/c2ccc(F)cc2)S/C1=N\c1cccc(C(=O)O)c1` yielded an inhibition of 68.3%.

The molecule `CN1C(=O)/C(=C/c2ccccc2Br)S/C1=N\c1cccc(C(=O)O)c1` yielded an inhibition of 50.5%.

For the molecule `CCN1C(=O)/C(=C/c2ccccc2OCC(=O)OC)S/C1=N\c1cccc(C(=O)O)c1`, the inhibition amounted to 31%.

In turn, `CCN1C(=O)/C(=C/c2ccco2)S/C1=N\c1cccc(C(=O)O)c1` registered an inhibition of 29.2%.

Molecule `CCN1C(=O)/C(=C/c2ccc(OC)cc2)S/C1=N\c1cccc(C(=O)O)c1` yielded an inhibition of 56.2%.

As for `COC(=O)COc1ccccc1/C=C1\S/C(=N\c2cccc(C(=O)O)c2)N(C)C1=O`, the inhibition was found to be 56.3%.

Regarding `C=CCN1C(=O)/C(=C/c2ccc(OCC(=O)O)cc2)S/C1=N\c1cccc(C(C)=O)c1`, the inhibition stood at 0%.

`CCCCN1C(=O)/C(=C/c2ccc(O)cc2)S/C1=N\c1cccc(C(=O)O)c1` gave an inhibition of 78.5%.

As to `C=CCN1C(=O)/C(=C/c2ccc(OCC(=O)O)cc2)S/C1=N\c1cccc(C(=O)O)c1`, the inhibition turned out to be 1.4%.

In turn, `CCN1C(=O)/C(=C/c2ccc(O)c(OC)c2)S/C1=N\c1cccc(C(=O)O)c1` showed an inhibition of 75.6%.

In the case of `CCN1C(=O)/C(=C/c2ccccc2O)S/C1=N\c1cccc(C(=O)O)c1`, the inhibition is 53.2%.

In turn, `CCN1C(=O)/C(=C/c2cccc(C(F)(F)F)c2)S/C1=N\c1cccc(C(=O)O)c1` registered an inhibition of 26%.

`C=CCN1C(=O)/C(=C/c2ccccc2OCC(=O)O)S/C1=N\c1cccc(C(=O)O)c1` came in with an inhibition of 25.4%.

`CCN1C(=O)/C(=C/c2ccc(OCC(=O)O)cc2)S/C1=N\c1cccc(C(C)=O)c1` displayed an inhibition of 10%.

Take `Cc1ccc(/C=C2\S/C(=N\c3cccc(C(=O)O)c3)N(C)C2=O)cc1`: the inhibition turned out to be 45.6%.

In turn, `C=CCN1C(=O)/C(=C/c2ccc(OCC(=O)OC)cc2)S/C1=N\c1cccc(C(=O)O)c1` displayed an inhibition of 19.9%.

For the molecule `CCN1C(=O)/C(=C/c2cnccc2C(F)(F)F)S/C1=N\c1cccc(C(=O)O)c1`, the inhibition was found to be 46%.

In turn, `CCN1C(=O)/C(=C/c2cc(OC)c(OC)c(OC)c2)S/C1=N\c1cccc(C(=O)O)c1` gave an inhibition of 37.4%.

Regarding `CCN1C(=O)/C(=C/c2ccc(OCC(=O)OC)cc2)S/C1=N\c1cccc(C(=O)O)c1`, the inhibition was found to be 9.9%.

For the molecule `CCN1C(=O)/C(=C/c2ccc(Cl)cc2Cl)S/C1=N\c1cccc(C(=O)O)c1`, the inhibition worked out at 45.4%.

As for `CN1C(=O)/C(=C/c2ccccn2)S/C1=N\c1cccc(C(=O)O)c1`, the inhibition worked out at 64.4%.

With `CCCN1C(=O)/C(=C/c2ccc(OCC(=O)OC)cc2)S/C1=N\c1cccc(C(C)=O)c1`, the inhibition is 0%.

In the case of `CCN1C(=O)/C(=C/c2ccc(C(F)(F)F)cc2)S/C1=N\c1cccc(C(=O)O)c1`, the inhibition stood at 50.8%.

In the case of `CC(=O)c1cccc(/N=C2\S/C(=C\c3ccc(OCC(=O)O)cc3)C(=O)N2C(C)C)c1`, the inhibition was 10.2%.

The molecule `CN1C(=O)/C(=C/c2ccc(Cl)c(Cl)c2)S/C1=N\c1cccc(C(=O)O)c1` returned an inhibition of 60%.

As to `CCN1C(=O)/C(=C/c2ccccc2)S/C1=N\c1cccc(C(=O)O)c1`, the inhibition worked out at 39.3%.

On to `CCN1C(=O)/C(=C/c2ccc([N+](=O)[O-])cc2)S/C1=N\c1cccc(C(=O)O)c1`, for which the inhibition came to 32.7%.

`CCN1C(=O)/C(=C/c2ccc(C)cc2)S/C1=N\c1cccc(C(=O)O)c1` had an inhibition of 41.7%.

For `CCN1C(=O)/C(=C/c2ccccc2Cl)S/C1=N\c1cccc(C(=O)O)c1`, the inhibition stood at 43.3%.

The molecule `CCN1C(=O)/C(=C/c2ccc[nH]2)S/C1=N\c1cccc(C(=O)O)c1` gave an inhibition of 32.5%.

As to `Cc1ccccc1/C=C1\S/C(=N\c2cccc(C(=O)O)c2)N(C)C1=O`, the inhibition was determined as 57.4%.

`CCN1C(=O)/C(=C/c2c[nH]c3ccccc23)S/C1=N\c1cccc(C(=O)O)c1` yielded an inhibition of 61.9%.

Take `CCCN1C(=O)/C(=C/c2ccc(OCC(=O)OC)cc2)S/C1=N\c1cccc(C(=O)O)c1`: the inhibition was determined as 0%.

Take `COC(=O)COc1ccccc1/C=C1\S/C(=N\c2cccc(C(=O)O)c2)N(C(C)C)C1=O`: the inhibition came to 55.7%.

As for `CN1C(=O)/C(=C/c2ccc([N+](=O)[O-])cc2)S/C1=N\c1cccc(C(=O)O)c1`, the inhibition was 51.8%.

Take `CCCCN1C(=O)/C(=C/c2ccc(OCC(=O)O)cc2)S/C1=N\c1cccc(C(=O)O)c1`: the inhibition was found to be 0%.

On to `COC(=O)COc1ccc(/C=C2\S/C(=N\c3cccc(C(C)=O)c3)N(C(C)C)C2=O)cc1`, for which the inhibition is 7.4%.

Consider `CN1C(=O)/C(=C/c2ccccc2OCc2ccccc2)S/C1=N\c1cccc(C(=O)O)c1`, for which the inhibition amounted to 44.8%.

`CC(=O)c1cccc(/N=C2\S/C(=C\c3ccc(O)cc3)C(=O)N2C(C)C)c1`: the inhibition was 8.2%.
